Experimental data reported in patent publication US7541467B2, “Fluorescent zinc ion sensor” (Sekisui Medical Co., Ltd., priority 2004, dated 2009).

Experiments:
[1] = Titration with zinc ions monitored by ultraviolet and visible absorption spectra; type: binding
Experimental: TQEN was titrated with zinc ions, and changes of ultraviolet and visible absorption spectra were monitored.
In the same manner as in Test Example 3, solution of 6OMeTQEN (concentration of 6OMeTQEN: 34 μM) in water-containing DMF (DMF:water=1:1) was titrated with zinc ions (0 to 68 μM), and changes in absorption were monitored by measuring ultraviolet and visible absorption spectra (FIG. 8).

[2] = Fluorescence on irradiation with and without added zinc ions; type: physicochemical
[3] = Fluorescent responses in the presence of various metal ions
[4] = NMR titration

## COc1ccc2nc(CN(CCN(Cc3ccc4cc(OC)ccc4n3)Cc3ccc4cc(OC)ccc4n3)Cc3ccc4cc(OC)ccc4n3)ccc2c1 [6OMeTQEN, N,N,N′,N′-tetrakis(6-methoxy-2-quinolylmethyl)-ethylenediamine]
other
  melting point: 168 to 170 °C
[1]; 34 μM in DMF:water=1:1
  absorption wavelength longer than that of TQEN by: about 20 nm
[1]; 34 μM in DMF:water=1:1, zinc ions 0 to 68 μM
  absorption wavelength extended to: around 350 nm
[2]; excitation 340 nm, DMF:water=1:1, 34 μM, zinc ions 0 to 68 μM
  fluorescence wavelength when zinc ions were added: 410 nm
[2]; irradiated with light of 340 nm, DMF:water=1:1, 34 μM
  fluorescence without zinc ions: substantially no fluorescence was emitted

## c1ccc2nc(CN(CCN(Cc3ccc4ccccc4n3)Cc3ccc4ccccc4n3)Cc3ccc4ccccc4n3)ccc2c1 [TQEN, N,N,N′,N′-tetrakis(2-quinolylmethyl)ethylenediamine]
[3]
  fluorescence intensity in the presence of cadmium ions, relative to that in the presence of zinc ions: about 60%
other
  melting point: 196 to 198 °C
[2]; excitation 317 nm, DMF or DMF:water=1:1
  fluorescence wavelength when zinc ions were added: 383 nm
[2]; irradiated with light of 317 nm in DMF or DMF:water=1:1
  fluorescence without zinc ions: substantially no fluorescence was emitted
[4]
  exchange rate between free and zinc-bound ligand: slower than the time scale of NMR
